Test [1] addresses Casein kinase I isoform delta (Homo sapiens) (UniProt P48730). The test can be described thus: Inhibition of human CK1d at 18.6 nM by HotSpot assay relative to control.
In test [2] the target is NT-3 growth factor receptor (Homo sapiens) (UniProt Q16288). The test can be described thus: Inhibition of human TRKC at 18.6 nM by HotSpot assay relative to control.
Test [3] concerns the target T1, Mitogen-activated protein kinase kinase kinase 5 (Homo sapiens) (UniProt Q99683).
T1 sequence (whole entry): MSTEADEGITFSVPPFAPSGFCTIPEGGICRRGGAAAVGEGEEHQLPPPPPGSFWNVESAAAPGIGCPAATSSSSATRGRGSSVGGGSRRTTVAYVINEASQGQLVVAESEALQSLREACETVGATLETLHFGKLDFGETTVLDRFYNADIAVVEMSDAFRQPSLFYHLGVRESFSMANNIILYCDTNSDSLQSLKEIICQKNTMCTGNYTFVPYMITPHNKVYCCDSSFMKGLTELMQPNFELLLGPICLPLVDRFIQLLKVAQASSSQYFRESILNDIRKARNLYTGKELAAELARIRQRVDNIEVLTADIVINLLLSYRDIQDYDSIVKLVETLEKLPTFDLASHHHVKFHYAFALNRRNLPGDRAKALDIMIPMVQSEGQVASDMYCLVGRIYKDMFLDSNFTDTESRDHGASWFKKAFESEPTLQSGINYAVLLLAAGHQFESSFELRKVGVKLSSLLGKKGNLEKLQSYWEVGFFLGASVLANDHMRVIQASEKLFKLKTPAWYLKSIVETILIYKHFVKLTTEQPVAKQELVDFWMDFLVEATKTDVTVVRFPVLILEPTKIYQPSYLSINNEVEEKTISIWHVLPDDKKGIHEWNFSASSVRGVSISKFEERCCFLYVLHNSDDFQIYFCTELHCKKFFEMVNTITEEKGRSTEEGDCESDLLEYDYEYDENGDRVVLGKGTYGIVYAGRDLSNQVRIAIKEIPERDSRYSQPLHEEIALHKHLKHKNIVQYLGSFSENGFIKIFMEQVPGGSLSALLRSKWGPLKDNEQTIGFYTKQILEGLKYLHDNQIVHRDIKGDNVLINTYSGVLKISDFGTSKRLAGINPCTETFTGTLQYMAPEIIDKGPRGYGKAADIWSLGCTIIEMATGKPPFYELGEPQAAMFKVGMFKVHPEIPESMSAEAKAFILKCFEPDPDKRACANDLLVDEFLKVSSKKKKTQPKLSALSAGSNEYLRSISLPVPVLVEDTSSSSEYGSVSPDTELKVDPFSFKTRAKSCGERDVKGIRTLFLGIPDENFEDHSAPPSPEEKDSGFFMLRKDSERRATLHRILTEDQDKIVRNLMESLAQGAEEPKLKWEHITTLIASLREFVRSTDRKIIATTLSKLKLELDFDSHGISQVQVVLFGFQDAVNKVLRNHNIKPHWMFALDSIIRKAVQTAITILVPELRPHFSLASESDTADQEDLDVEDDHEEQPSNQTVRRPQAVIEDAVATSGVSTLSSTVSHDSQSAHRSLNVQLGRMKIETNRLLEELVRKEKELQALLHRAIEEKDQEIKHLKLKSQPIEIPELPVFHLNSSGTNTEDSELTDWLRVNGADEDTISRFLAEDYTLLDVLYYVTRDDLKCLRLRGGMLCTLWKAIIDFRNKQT
In words: Inhibition of human ASK1 at 1.82 nM by HotSpot assay relative to control.

The target in test [4] is Ribosomal protein S6 kinase beta-2 (Homo sapiens) (UniProt Q9UBS0). In words: Inhibition of human RPS6KB2 at 1.82 nM by HotSpot assay relative to control.
Test [5] has as its target T2, Serine/threonine-protein kinase Nek9 (Homo sapiens) (UniProt Q8TD19).
T2 sequence (whole entry): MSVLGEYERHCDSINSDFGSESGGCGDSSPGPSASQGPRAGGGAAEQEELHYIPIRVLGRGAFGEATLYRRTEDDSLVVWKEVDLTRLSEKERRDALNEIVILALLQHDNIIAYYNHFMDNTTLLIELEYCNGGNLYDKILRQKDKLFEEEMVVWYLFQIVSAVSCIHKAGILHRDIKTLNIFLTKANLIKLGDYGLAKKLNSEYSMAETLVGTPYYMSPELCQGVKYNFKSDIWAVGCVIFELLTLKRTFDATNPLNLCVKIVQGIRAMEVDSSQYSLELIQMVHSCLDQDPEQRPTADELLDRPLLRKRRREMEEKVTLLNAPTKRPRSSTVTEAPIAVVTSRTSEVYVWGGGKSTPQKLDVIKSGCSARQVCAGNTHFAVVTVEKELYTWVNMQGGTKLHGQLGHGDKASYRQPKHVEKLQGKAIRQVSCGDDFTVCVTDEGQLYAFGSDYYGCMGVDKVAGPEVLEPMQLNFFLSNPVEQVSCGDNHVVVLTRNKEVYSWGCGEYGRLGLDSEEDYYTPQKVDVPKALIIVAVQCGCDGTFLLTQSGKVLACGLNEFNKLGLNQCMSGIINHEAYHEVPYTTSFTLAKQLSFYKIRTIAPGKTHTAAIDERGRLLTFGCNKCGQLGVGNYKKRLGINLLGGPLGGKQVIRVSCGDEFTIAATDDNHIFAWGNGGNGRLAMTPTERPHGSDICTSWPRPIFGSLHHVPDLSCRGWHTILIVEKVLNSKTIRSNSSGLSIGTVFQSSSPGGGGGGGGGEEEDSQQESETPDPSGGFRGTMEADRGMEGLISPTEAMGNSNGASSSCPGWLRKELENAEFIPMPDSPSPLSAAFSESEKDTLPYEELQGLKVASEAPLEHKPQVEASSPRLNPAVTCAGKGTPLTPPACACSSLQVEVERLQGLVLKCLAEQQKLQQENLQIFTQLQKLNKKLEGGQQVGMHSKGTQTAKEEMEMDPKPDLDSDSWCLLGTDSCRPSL
The test can be described thus: Inhibition of human NEK9 at 1.82 nM by HotSpot assay relative to control.

This is an account of results in ChEMBL document CHEMBL5653615 (J Biol Chem, 2013).

Sequence of Ribosomal protein S6 kinase beta-2 (Homo sapiens) (Q9UBS0 whole entry): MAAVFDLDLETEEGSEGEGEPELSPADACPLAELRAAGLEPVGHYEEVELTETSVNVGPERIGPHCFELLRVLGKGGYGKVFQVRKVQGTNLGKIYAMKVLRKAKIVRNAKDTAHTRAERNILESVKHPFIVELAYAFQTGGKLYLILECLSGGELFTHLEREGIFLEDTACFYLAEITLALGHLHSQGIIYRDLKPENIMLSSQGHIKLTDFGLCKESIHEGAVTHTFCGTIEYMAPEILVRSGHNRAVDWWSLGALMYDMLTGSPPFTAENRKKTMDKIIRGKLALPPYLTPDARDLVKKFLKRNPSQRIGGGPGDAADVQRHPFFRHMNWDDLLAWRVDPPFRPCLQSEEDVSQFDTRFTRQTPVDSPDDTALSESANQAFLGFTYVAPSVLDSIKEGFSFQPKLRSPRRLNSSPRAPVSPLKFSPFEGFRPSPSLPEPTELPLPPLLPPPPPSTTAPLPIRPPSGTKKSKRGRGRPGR
Sequence of Casein kinase I isoform delta (Homo sapiens) (P48730 whole entry, looked up, canonical isoform): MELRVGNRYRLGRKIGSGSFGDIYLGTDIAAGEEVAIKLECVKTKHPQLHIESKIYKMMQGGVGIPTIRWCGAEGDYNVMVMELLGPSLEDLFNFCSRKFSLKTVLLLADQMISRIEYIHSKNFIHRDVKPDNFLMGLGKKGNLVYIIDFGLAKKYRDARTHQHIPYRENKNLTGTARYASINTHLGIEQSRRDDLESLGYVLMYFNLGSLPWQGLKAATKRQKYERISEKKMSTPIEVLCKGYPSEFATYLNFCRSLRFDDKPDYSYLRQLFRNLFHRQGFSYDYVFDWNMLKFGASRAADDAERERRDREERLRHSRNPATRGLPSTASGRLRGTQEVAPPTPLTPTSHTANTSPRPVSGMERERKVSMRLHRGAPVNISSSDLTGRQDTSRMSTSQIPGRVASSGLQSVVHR
Sequence of NT-3 growth factor receptor (Homo sapiens) (Q16288 32-839 limits assumed): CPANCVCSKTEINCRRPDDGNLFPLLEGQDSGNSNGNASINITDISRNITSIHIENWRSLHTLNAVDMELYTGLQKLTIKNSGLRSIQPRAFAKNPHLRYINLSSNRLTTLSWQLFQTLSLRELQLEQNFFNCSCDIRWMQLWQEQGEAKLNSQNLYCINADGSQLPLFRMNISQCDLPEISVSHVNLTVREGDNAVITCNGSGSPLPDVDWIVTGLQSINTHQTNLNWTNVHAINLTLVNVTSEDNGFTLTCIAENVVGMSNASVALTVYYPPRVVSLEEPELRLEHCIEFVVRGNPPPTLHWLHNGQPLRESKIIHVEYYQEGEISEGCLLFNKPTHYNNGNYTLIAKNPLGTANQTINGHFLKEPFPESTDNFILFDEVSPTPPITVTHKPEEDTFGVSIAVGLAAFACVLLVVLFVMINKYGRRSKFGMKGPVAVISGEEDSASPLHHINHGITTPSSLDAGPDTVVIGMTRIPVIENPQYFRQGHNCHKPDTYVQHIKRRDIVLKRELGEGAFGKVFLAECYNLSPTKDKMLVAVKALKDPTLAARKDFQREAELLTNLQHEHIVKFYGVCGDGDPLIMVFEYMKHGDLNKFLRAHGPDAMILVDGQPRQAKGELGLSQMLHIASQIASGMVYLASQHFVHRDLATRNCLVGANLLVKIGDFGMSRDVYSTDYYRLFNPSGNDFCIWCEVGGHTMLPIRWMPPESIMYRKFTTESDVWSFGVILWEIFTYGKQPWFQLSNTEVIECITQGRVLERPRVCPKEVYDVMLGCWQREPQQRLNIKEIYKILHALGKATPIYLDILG

A word on the inhibition: it is the relative decrease from the control value, in per cent. Take `C[C@]1(O)C[C@@H](c2nc(-c3ccc4ccc(-c5ccccc5)nc4c3)c3c(N)nccn32)C1`: the inhibition is -2.47% in test [1] and 0.03% in test [2].

With `C[C@@]1(C(=O)Nc2ccc(F)nc2)CCCN1c1nc(Nc2cc(C3CC3)n[nH]2)c2cccn2n1`, the figures for the inhibition in test [3], in test [4] and in test [5] were -3.08%, -0.77% and -1.18%, respectively.
